Measurements: patent US6894073B2, “Use of diterpene compound as a therapeutic agent of inflammation, immune disease or cancer” (Korea Research Institute of Bioscience and Biotechnology, priority 2000, dated 2005)

What was measured:
COX-2 protein = COX-2 protein expression, Western blot, LPS-stimulated Raw 264.7 cells; type: cell-based, murine; settings: 0.1-3 μg/ml, LPS 1 μg/ml, 18 hours
Experimental: Raw 264.7 murine macrophage cells were treated simultaneously with 1 μg/ml concentrations of LPS and 0.1 μg/ml, 0.3 μg/ml, 1 μg/ml, and 3 μg/ml concentrations of kamebakaurin and were incubated for 18 hours at 37° C. in a 5% CO2 incubator. After preparing total cell lysates from cultured cells using buffer solution for protein extraction of the Example <7-2>, the expression pattern of proteins was assessed by Western blot analysis.

Bf1-1/A1 mRNA = assay: TNF-α-induced Bf1-1/A1 mRNA expression, Northern blot, MCF-7 and HT-1080 cells; type: cell-based; settings: 1, 5, 10 μg/ml, 20 ng/ml TNF-α 3 hours
Experimental: MCF-7 cells (ATCC HTB 22, breast cancer cell line) and HT-1080 cells (ATCC CCL 121, fibroblastoma) were pretreated for 30 minutes with 1 μg/ml, 5 μg/ml, and 10 μg/ml concentrations of four kinds of kaurane diterpene compounds. Thereafter, 20 ng/ml concentrations of TNF-α were treated for three hours to induce the expression of Bf1-1/A1 mRNA. After isolating total RNA from the control and compound-treated cells, the expression of Bf1-1/A1 mRNA was measured by Northern blot analysis. To accomplish this, 20 μg of the total RNA was electrophoresed in the 1% agarose gel containing 2.2M concentrations of formaldehyde. After that, RNA was transferred to nylon membrane and fixed using ultraviolet. The nylon membrane was hybridized with ^32P-labeled probe, which was represented by SEQ. ID NO. 2 and specific to the cDNA of Bf1-1/A1 gene. After washing unbound probe with phosphate buffered saline (PBS) containing sodium dodecyl sulfate (SDS), the membrane was exposed to x-ray film.

nitric oxide (NO) = assay: Inhibition of NO production (nitrite, Griess reagent) in LPS-stimulated Raw 264.7 macrophage cells; type: cell-based, murine; settings: for NO: 1 μg/ml LPS, 24 hours
Experimental: To investigate whether kaurane diterpene compounds obtained in Example 1 can inhibit the production of nitric oxide (NO) which induces apoptosis of the immune and neuron cells, the present inventors measured the amount of nitrite (NO2) accumulated in the culture medium of LPS-stimulated murine macrophage cells, which were treated with four kaurane diterpene compounds, kamebanin, kamebacetal A, kamebakaurin, or exisanin A.
In detail, Raw 264.7 murine macrophage cells (ATCC TIB-71) in DMEM medium were seeded to 96-well plate at a cell density of 1×10^5 cells/well and incubated for 3 hours at 37° C., 5% CO2 incubator. To induce NO synthesis in the macrophage cell, 1 μg/ml of LPS and 3 μg/ml, 0.3 μg/ml, and 0.03 μg/ml of kaurane diterpene compounds of the present invention were added to the medium and the plate was incubated for 24 hours. The amount of NO2, the final oxidation product of NO induced by the LPS in the medium was measured as followed. After collecting and centrifuging incubated medium, 100 μl of Griess reagent was added into 100 μl of each culture medium. Then, the medium was incubated for ten minutes at room temperature and absorbance at 550 nm wavelength was measured. Griess reagent was prepared by mixing a solution, wherein 1% sulfanilamide was dissolved in 5% phosphoric acid, and a solution of 0.1% naphyhylethylenediamine-HCl by a 1:1 ratio. To measure the amount of standard NO synthesis, NaNO2 was serially diluted and the absorbance was measured after reacting it with Griess reagent. From this, the standard curve for the amount of NO production was obtained. The amount of NO production in the culture medium treated with each compound was estimated using standard curve for NO determination.

Bax = Bax expression, Western blot, MCF-7 and HT-1080 cells; type: cell-based; settings: 1, 5, 10 μg/ml, 20 ng/ml TNF-α 3 hours
Experimental: MCF-7 cells and HT-1080 cells were pretreated for 30 minutes with 1 μg/ml, 5 μg/ml, and 10 μg/ml concentrations of four kinds of kaurane diterpene compounds, respectively. After that, 20 ng/ml concentrations of TNF-α were treated for three hours to induce the expression of cIAP-1 and cIAP-2 proteins. Protein extract was prepared from cultured cells using buffer solution for protein extraction consisting of 50 mM Tris-HCL (pH 7.5), 1% Nonidet P40, 150 mM NaCl, 1 mM EDTA, 1 mM phenylmethyl sulfonyl fluoride, […]. 50 μg of protein extract of the control and compound-treated groups was applied to the SDS-polyacrylamide gel electrophoresis. After transferring the proteins into the polyvinylidene difluoride membrane, the membrane was blocked with 5% skim milk for three hours, and were reacted with antibodies against cIAP-1, cIAP-2, Bcl-2, and Bax proteins (Santa Cruz Biochemicals). The membrane was washed with PBS and was reacted with secondary antibody conjugated with horseradish peroxidase. After washing again with PBS, the protein was detected by ECL system (Amersham Pharmacia Biotec).

NF-κB = NF-κB activation, SEAP reporter in LPS-stimulated RAW-NF-AP cells; type: cell-based, murine; settings: Mus musculus
Experimental: RAW-NF-AP cells, which can be used effectively to detect the NF-κB dependent expression of reporter gene, (Korean Patent Application No. 1999-0006025), were seeded to a 96-well plate at a cell density of 1×10^5 cell/well and were incubated for 3 hours at 37° C. in a 5% CO2 incubator. Thereafter, 1 μg/ml concentration of LPS and 0.03 μg/ml, 0.3 μg/ml, and 3 μg/ml concentrations of kaurane diterpene compounds of the present invention were added to each well and was incubated for 16 hours. After collecting supernatant by centrifugation, the amount of secreted alkaline phosphatase (SEAP) in the culture medium of which expression is regulated by the activation of NF-κB was quantified.

`C=C1C(=O)[C@@]23[C@H](O)C[C@@H]4C(C)(C)CC[C@H](O)[C@@]4(CO)[C@@H]2CC[C@@H]1[C@H]3O` [Kamebakaurin, kamebakaurin] was tested, and the “Expression of COX-2 protein” value (COX-2 protein) was “suppressed dose-dependently”, the “Expression of Bf1-1/A1 mRNA induced by TNF-α” value (Bf1-1/A1 mRNA) was “inhibited” and the “NO” value (nitric oxide (NO); 0.03 μg/ml compound) was 29.1 ± 4.2 µM. The “NO” value (nitric oxide (NO); 0.3 μg/ml compound) was 16.1 ± 2.8 µM, the “NO” value (nitric oxide (NO); 3 μg/ml compound) was 3.6 ± 0.7 µM and the inhibition at 0.03 µg/mL (nitric oxide (NO); Mus musculus, RAW264.7, 0.03 μg/ml compound, read-out: Inhibition rate (%) of NO production) was 44.2%. It also gave an inhibition at 0.3 µg/mL (nitric oxide (NO); Mus musculus, RAW264.7, 0.3 μg/ml compound, read-out: Inhibition rate (%) of NO production) of 72.4%, an inhibition at 3 µg/mL (nitric oxide (NO); Mus musculus, RAW264.7, 3 μg/ml compound, read-out: Inhibition rate (%) of NO production) of 99.3% and an IC50 (nitric oxide (NO); Mus musculus, RAW264.7, LPS-stimulated Raw 264.7 cells) of 0.15 µM. For the same molecule, the “Expression of Bax” value (Bax) was “not inhibited”, the inhibition at 0.03 µg/mL (NF-κB; 0.03 μg/ml compound, 1 μg/ml LPS, 16 hours) was 2.5% and the inhibition at 0.3 µg/mL (NF-κB; 0.3 μg/ml compound, 1 μg/ml LPS, 16 hours) was 33.1%. For the same molecule, the inhibition at 3 µg/mL (NF-κB; 3 μg/ml compound, 1 μg/ml LPS, 16 hours) was 96.4% and the IC50 (NF-κB; RAW-NF-AP cells, LPS) was 1.11 µM.
